{
  "source": "patent US12577228B2",
  "about": "“Dihydrocyclopenta-isoquinoline-sulfonamide derivatives compounds” (UCB Biopharma SRL, priority 2019, dated 2026)",
  "data": [
    {"molecular_target": "T1, IgE-Tb / soluble IgE receptor FcεRIα with a Y131A mutation (Homo sapiens, UniProt P01854, N146Q/N252Q)", "T1 construct": "fused on or other part: Terbium chelate (LanthaScreen amine-reactive) on IgE-Fc; Alexa Fluor 488 hydrazide on the oxidised glycans of sFcεRIα; Both are labels and no part of the key", "T1 sequence (P01854 104-427 N146Q/N252Q)": "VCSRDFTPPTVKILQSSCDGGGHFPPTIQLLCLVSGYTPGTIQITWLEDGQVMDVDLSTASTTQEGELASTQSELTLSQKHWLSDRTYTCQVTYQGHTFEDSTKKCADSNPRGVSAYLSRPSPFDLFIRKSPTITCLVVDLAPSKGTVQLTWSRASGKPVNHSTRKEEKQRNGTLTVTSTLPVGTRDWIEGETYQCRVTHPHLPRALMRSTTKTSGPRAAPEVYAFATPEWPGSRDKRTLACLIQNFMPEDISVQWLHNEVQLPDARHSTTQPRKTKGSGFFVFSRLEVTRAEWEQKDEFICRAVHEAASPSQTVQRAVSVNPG", "T1 sequence (P12319 26-201 Y156A partner)": "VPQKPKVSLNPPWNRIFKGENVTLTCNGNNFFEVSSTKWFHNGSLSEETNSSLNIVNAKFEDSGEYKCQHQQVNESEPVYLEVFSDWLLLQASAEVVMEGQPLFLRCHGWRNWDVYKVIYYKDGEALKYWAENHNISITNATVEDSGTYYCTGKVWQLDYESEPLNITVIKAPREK", "assay": "in vitro FRET assay: binding of IgE-Tb to receptor FcεRIα-Y131A-AF488 and its inhibition by compounds", "conditions": "5 nM IgE-Tb, 25 nM FcεRIα-Y131A-AF488, 2 hours at room temperature; read-out: FRET IC50 range", "units": {"IC50": "nM"}, "values": [
      {"compound": "C[S+]([O-])c1ccc(NC2Cc3cc4cnc(C5CC5)cc4c(S(=O)(=O)NCC(C)(C)F)c3C2)cn1", "note": "(stereo not shown) [Example 139, 3-cyclopropyl-N-(2-fluoro-2-methylpropyl)-7-[(6-methylsulfinylpyridin-3-yl)amino]-7,8-dihydro-6H-cyclopenta[g]isoquinoline-5-sulfonamide]", "IC50": "10 to 50"},
      {"compound": "CC(=O)c1ccc(N[C@@H]2Cc3cc4cnc(C5CC5)cc4c(S(=O)(=O)NCC(C)(C)F)c3C2)cc1", "note": "[Example 114, (7R)-7-(4-acetylanilino)-3-cyclopropyl-N-(2-fluoro-2-methylpropyl)-7,8-dihydro-6H-cyclopenta[g]isoquinoline-5-sulfonamide]", "IC50": "50 to 100"},
      {"compound": "CC(C)(F)CNS(=O)(=O)c1c2c(cc3cnc(C4CC4)cc13)CC(Nc1cccnc1)C2", "note": "(stereo not shown) [Example 86, 3-cyclopropyl-N-(2-fluoro-2-methylpropyl)-7-(pyridin-3-ylamino)-7,8-dihydro-6H-cyclopenta[g]isoquinoline-5-sulfonamide]", "IC50": "10 to 50"},
      {"compound": "Cc1nc(C2CC2)cc2c(S(=O)(=O)NCC(C)C)c3c(cc12)CCC3", "note": "[Example 67, 3-cyclopropyl-1-methyl-N-(2-methylpropyl)-7,8-dihydro-6H-cyclopenta[g]isoquinoline-5-sulfonamide]", "IC50": "100 to 2000"},
      {"compound": "CCNC(=O)CN1Cc2cc3cnc(C4CC4)cc3c(S(=O)(=O)NCC(C)C)c2C1", "note": "[Example 59, 2-[7-cyclopropyl-9-(2-methylpropylsulfamoyl)-1,3-dihydropyrrolo[3,4-g]isoquinolin-2-yl]-N-ethylacetamide]", "IC50": "100 to 2000"},
      {"compound": "CC(C)(F)CNS(=O)(=O)c1c2c(cc3cnc(C4CC4)cc13)CN(C(=O)Cc1cccnc1)C2", "note": "[Example 72, 7-cyclopropyl-N-(2-fluoro-2-methylpropyl)-2-(2-pyridin-3-ylacetyl)-1,3-dihydropyrrolo[3,4-g]isoquinoline-9-sulfonamide]", "IC50": "100 to 2000"},
      {"compound": "Cc1noc(-c2ccc(N[C@@H]3Cc4cc5cnc(C6CC6)cc5c(S(=O)(=O)NCC(C)(C)F)c4C3)cn2)n1", "note": "[Example 36, (7R)-3-cyclopropyl-N-(2-fluoro-2-methylpropyl)-7-[[6-(3-methyl-1,2,4-oxadiazol-5-yl)pyridin-3-yl]amino]-7,8-dihydro-6H-cyclopenta[g]isoquinoline-5-sulfonamide]", "IC50": "1 to 10"},
      {"compound": "CC(C)(F)CNS(=O)(=O)c1c2c(cc3cnc(C4CC4)cc13)CC(Nc1cncnc1NCC1CC1)C2", "note": "(stereo not shown) [Example 19, 3-cyclopropyl-7-[[4-(cyclopropylmethylamino)pyrimidin-5-yl]amino]-N-(2-fluoro-2-methylpropyl)-7,8-dihydro-6H-cyclopenta[g]isoquinoline-5-sulfonamide]", "IC50": "10 to 50"},
      {"compound": "CC(C)CNS(=O)(=O)c1c2c(cc3cnc(C4CC4)cc13)CC(NS(C)(=O)=O)C2", "note": "(stereo not shown) [Example 55, 3-cyclopropyl-7-(methanesulfonamido)-N-(2-methylpropyl)-7,8-dihydro-6H-cyclopenta[g]isoquinoline-5-sulfonamide]", "IC50": "50 to 100"},
      {"compound": "CC(C)(F)CNS(=O)(=O)c1c2c(cc3cnc(C4CC4)cc13)C[C@@H](Nc1cnc(-c3nnn[nH]3)nc1)C2", "note": "[Example 124, (7R)-3-cyclopropyl-N-(2-fluoro-2-methylpropyl)-7-[[2-(1H-tetrazol-5-yl)pyrimidin-5-yl]amino]-7,8-dihydro-6H-cyclopenta[g]isoquinoline-5-sulfonamide]", "IC50": "10 to 50"},
      {"compound": "CC(C)(F)CNS(=O)(=O)c1c2c(cc3cnc(C4CC4)cc13)C[C@@H](Nc1cnc(C(=O)O)c3ccccc13)C2", "note": "[Example 138, lithium; 4-[[(7R)-3-cyclopropyl-5-[(2-fluoro-2-methyl-propyl)sulfamoyl]-7,8-dihydro-6H-cyclopenta[g]isoquinolin-7-yl]amino]isoquinoline-1-carboxylate]", "IC50": "50 to 100"},
      {"compound": "Cc1nnc(-c2ccc(N[C@@H]3Cc4cc5cnc(C6CC6)cc5c(S(=O)(=O)NCC(C)(C)F)c4C3)cn2)o1", "note": "[Example 37, (7R)-3-cyclopropyl-N-(2-fluoro-2-methylpropyl)-7-[[6-(5-methyl-1,3,4-oxadiazol-2-yl)pyridin-3-yl]amino]-7,8-dihydro-6H-cyclopenta[g]isoquinoline-5-sulfonamide]", "IC50": "1 to 10"},
      {"compound": "Cc1nc(-c2ccc(N[C@@H]3Cc4cc5cnc(C6CC6)cc5c(S(=O)(=O)NCC(C)(C)F)c4C3)cn2)no1", "note": "[Example 31, (7R)-3-cyclopropyl-N-(2-fluoro-2-methylpropyl)-7-[[6-(5-methyl-1,2,4-oxadiazol-3-yl)pyridin-3-yl]amino]-7,8-dihydro-6H-cyclopenta[g]isoquinoline-5-sulfonamide]", "IC50": "1 to 10"},
      {"compound": "CC(C)(F)CNS(=O)(=O)c1c2c(cc3cnc(C4CC4)cc13)CN(Cc1cccnc1)C2", "note": "[Example 91, 7-cyclopropyl-N-(2-fluoro-2-methyl-propyl)-2-(3-pyridylmethyl)-1,3-dihydropyrrolo[3,4-g]isoquinoline-9-sulfonamide; formic acid]", "IC50": "100 to 2000"},
      {"compound": "COc1cc(Oc2cncc(N[C@@H]3Cc4cc5cnc(C6CC6)cc5c(S(=O)(=O)NCC(C)(C)F)c4C3)c2)ccn1", "note": "[Example 16, (7R)-3-cyclopropyl-N-(2-fluoro-2-methylpropyl)-7-[[5-(2-methoxypyridin-4-yl)oxypyridin-3-yl]amino]-7,8-dihydro-6H-cyclopenta[g]isoquinoline-5-sulfonamide]", "IC50": "50 to 100"},
      {"compound": "CC(C)(F)CNS(=O)(=O)c1c2c(cc3cnc(C4CC4)cc13)C[C@@H](Nc1cnc(Cl)cc1OCC1CC1)C2", "note": "[Example 119, (7R)-7-[[6-chloro-4-(cyclopropylmethoxy)pyridin-3-yl]amino]-3-cyclopropyl-N-(2-fluoro-2-methylpropyl)-7,8-dihydro-6H-cyclopenta[g]isoquinoline-5-sulfonamide]", "IC50": "50 to 100"},
      {"compound": "CC(C)(F)CNS(=O)(=O)c1c2c(cc3cnc(C4CC4)cc13)CC(c1nc3c(=O)[nH]ccc3[nH]1)C2", "note": "(stereo not shown) [Example 71, 3-cyclopropyl-N-(2-fluoro-2-methylpropyl)-7-(4-oxo-1,5-dihydroimidazo[4,5-c]pyridin-2-yl)-7,8-dihydro-6H-cyclopenta[g]isoquinoline-5-sulfonamide]", "IC50": "50 to 100"},
      {"compound": "CC(C)(F)CNS(=O)(=O)c1c2c(cc3cnc(C4CC4)cc13)CC(Nc1cncc3[nH]cnc13)C2", "note": "(stereo not shown) [Example 62, 3-cyclopropyl-N-(2-fluoro-2-methylpropyl)-7-(3H-imidazo[4,5-c]pyridin-7-ylamino)-7,8-dihydro-6H-cyclopenta[g]isoquinoline-5-sulfonamide]", "IC50": "10 to 50"},
      {"compound": "Cn1nnc(-c2ccc(N[C@@H]3Cc4cc5cnc(C6CC6)cc5c(S(=O)(=O)NC5CC(F)C5)c4C3)cn2)n1", "note": "(stereo partly drawn) [Example 1, (7R)-3-cyclopropyl-N-(3-fluorocyclobutyl)-7-[[6-(2-methyltetrazol-5-yl)pyridin-3-yl]amino]-7,8-dihydro-6H-cyclopenta[g]isoquinoline-5-sulfonamide]", "IC50": "1 to 10"},
      {"compound": "CC(C)CNS(=O)(=O)c1c2c(cc3cnc(C4CC4)cc13)C[C@H](Nc1nncn1-c1cccnc1)C2", "note": "(single isomer, unassigned) [Example 3, (7R*)-3-cyclopropyl-N-(2-methylpropyl)-7-[(4-pyridin-3-yl-1,2,4-triazol-3-yl)amino]-7,8-dihydro-6H-cyclopenta[g]isoquinoline-5-sulfonamide [* or S]]", "IC50": "10 to 50"},
      {"compound": "COC(=O)c1ccc(NC2Cc3cc4c(F)nc(C5CC5)cc4c(S(=O)(=O)NCC(C)(C)F)c3C2)cn1", "note": "(stereo not shown) [Example 24, methyl 5-[[3-cyclopropyl-1-fluoro-5-[(2-fluoro-2-methyl-propyl)sulfamoyl]-7,8-dihydro-6H-cyclopenta[g]isoquinolin-7-yl]amino]pyridine-2-carboxylate]", "IC50": "10 to 50"},
      {"compound": "CC(C)(F)CNS(=O)(=O)c1c2c(cc3cnc(C4CC4)cc13)CC(NC1=CS(=O)(=O)CC1)C2", "note": "(stereo not shown) [Example 40, 3-cyclopropyl-7-[(1,1-dioxo-2,3-dihydrothiophen-4-yl)amino]-N-(2-fluoro-2-methylpropyl)-7,8-dihydro-6H-cyclopenta[g]isoquinoline-5-sulfonamide]", "IC50": "100 to 2000"},
      {"compound": "CCNC(=O)NC1CCc2cc3cnc(C4CC4)cc3c(S(=O)(=O)NCC(C)C)c21", "note": "(stereo not shown) [Example 46, 1-[3-cyclopropyl-5-(2-methylpropylsulfamoyl)-7,8-dihydro-6H-cyclopenta[g]isoquinolin-6-yl]-3-ethylurea]", "IC50": "100 to 2000"},
      {"compound": "CC(C)(F)CNS(=O)(=O)c1c2c(cc3cnc(C4CC4)cc13)C[C@@H](NC(=O)c1n[nH]c3cc(Br)ccc13)C2", "note": "[Example 141, 6-bromo-N-[(7R)-3-cyclopropyl-5-[(2-fluoro-2-methylpropyl)sulfamoyl]-7,8-dihydro-6H-cyclopenta[g]isoquinolin-7-yl]-1H-indazole-3-carboxamide]", "IC50": "100 to 2000"},
      {"compound": "CC1(C)CC1NS(=O)(=O)c1c2c(cc3cnc(C4CC4)cc13)CC(C(=O)Nc1cccnc1)C2", "note": "(stereo not shown) [Example 81, 3-cyclopropyl-5-[(2,2-dimethylcyclopropyl)sulfamoyl]-N-pyridin-3-yl-7,8-dihydro-6H-cyclopenta[g]isoquinoline-7-carboxamide]", "IC50": "100 to 2000"},
      {"compound": "CC(C)(F)CNS(=O)(=O)c1c2c(cc3cnc(C4CC4)cc13)CC(CO)(Nc1nncn1-c1cccnc1)C2", "note": "(stereo not shown) [Example 50, 3-cyclopropyl-N-(2-fluoro-2-methylpropyl)-7-(hydroxymethyl)-7-[(4-pyridin-3-yl-1,2,4-triazol-3-yl)amino]-6,8-dihydrocyclopenta[g]isoquinoline-5-sulfonamide]", "IC50": "100 to 2000"},
      {"compound": "Cn1ccc(Oc2ccncc2N[C@@H]2Cc3cc4cnc(C5CC5)cc4c(S(=O)(=O)NCC(C)(C)F)c3C2)n1", "note": "[Example 128, (7R)-3-cyclopropyl-N-(2-fluoro-2-methylpropyl)-7-[[4-(1-methylpyrazol-3-yl)oxypyridin-3-yl]amino]-7,8-dihydro-6H-cyclopenta[g]isoquinoline-5-sulfonamide]", "IC50": "50 to 100"},
      {"compound": "CC(C)(F)CNS(=O)(=O)c1c2c(cc3cnc(C4CC4)cc13)C[C@@H](Nc1ccc(S(N)(=O)=O)nc1)C2", "note": "[Example 61, (7R)-3-cyclopropyl-N-(2-fluoro-2-methylpropyl)-7-[(6-sulfamoylpyridin-3-yl)amino]-7,8-dihydro-6H-cyclopenta[g]isoquinoline-5-sulfonamide]", "IC50": "10 to 50"}
    ]}
  ]
}
